Measured values taken from patent US9963496B2, “Stable glucagon analogues and use for treatment of hypoglycaemia” (Novo Nordisk A/S, priority 2014, dated 2018).
*1 amine or outer side, *2 acyl side, *3 side chain or, on linkers, in order; H or OH if unused. Where a SMILES comes first, the peptide text is derived from it. Side-chain parts run from the residue outwards. [ ]: non-standard residue; d: D form. The star is where a group is joined. γGlu = O=C(O)[C@H](CCC(=O)[*:2])N[*:1]; Desaminohistidyl = O=C(CCc1c[nH]cn1)*; Aib = CC(C)(N)C(=O)O

experiment: physchem; assay type: physicochemical; settings: pH 7.5
Text: Assay (III): ThT Fibrillation Assay for the Assessment of Physical Stability of Peptide Compositions The purpose of this assay is to assess the physical stability of the glucagon derivatives of the invention in aqueous solutions. Low physical stability of a peptide may lead to amyloid fibril formation, which is observed as well-ordered, thread-like macromolecular structures in the sample, which eventually may lead to gel formation. This has traditionally been measured by visual inspection of the sample. However, that kind of measurement is very cumbersome and depending on the observer. Therefore, the application of a small molecule indicator probe is much more advantageous. Thioflavin T (ThT) is such a probe and has a distinct fluorescence signature when binding to fibrils [Naiki et al. (1989) Anal. Biochem. 177, 244-249; LeVine (1999) Methods. Enzymol. 309, 274-284]. Here, as depicted in FIG. 1, F is the ThT fluorescence at the time t. The constant t0 is the time needed to reach 50% of maximum fluorescence. The two important parameters describing fibril formation are the lag-time calculated by t0−2τ and the apparent rate constant kapp 1/τ. Samples were prepared freshly before each assay. Each sample composition is described in the legends. The pH of the sample was adjusted to the desired value using appropriate amounts of concentrated NaOH and HCl. Thioflavin T was added to the samples from a stock solution in H2O to a final concentration of 1 μM. Sample aliquots of 200 μl (250 μM of the glucagon derivative/analogue in 10 mM HEPES buffer, pH 7.5) were placed in a 96 well microtiter plate (Packard OptiPlate™-96, white polystyrene). Usually, four or eight replica of each sample (corresponding to one test condition) was placed in one column of wells. The plate was sealed with Scotch Pad (Qiagen). Incubation at given temperature, shaking and measurement of the ThT fluorescence emission were done in a Fluoroskan Ascent FL fluorescence platereader (Thermo Labsystems). The plate was incubated 37° C. with orbital shaking adjusted to 960 rpm with an amplitude of 1 mm. Fluorescence measurement was done using excitation through a 444 nm filter and measurement of emission through a 485 nm filter. Each run was initiated by incubating the plate at the assay temperature for 10 min. The plate was measured every 20 minutes for a desired period of time. Between each measurement, the plate was shaken and heated as described. After completion of the ThT assay the four or eight replica of each sample was pooled and centrifuged at 20000 rpm for 30 minutes at 18° C. The supernatant was filtered through a 0.22 μm filter and an aliquot was transferred to a HPLC vial. The concentration of peptide in the initial sample and in the filtered supernatant was determined by reverse phase HPLC using an appropriate standard as reference. The percentage fraction the concentration of the filtered sample constituted of the initial sample concentration was reported as the recovery. The measurement points were saved in Microsoft Excel format for further processing and curve drawing and fitting was performed using GraphPad Prism. The background emission from ThT in the absence of fibrils was negligible. The data points were typically a mean of four or eight samples and shown with standard deviation error bars. Only data obtained in the same experiment (i.e. samples on the same plate) were presented in the same graph ensuring a relative measure of fibrillation between experiments. The data set may be fitted to Eq. (1).

Row | SMILES | recovery at 250 μM [%]
1 | CC(=O)N[C@@H](CCC(=O)N[C@@H](CCC(=O)N[C@@H](CCC(=O)N[C@@H](CCC(=O)NCCCC[C@H](NC(=O)[C@H](C)NC(=O)[C@H](CCCNC(=N)N)NC(=O)[C@H](CCCNC(=N)N)NC(=O)[C@H](CO)NC(=O)[C@H](CCC(=O)O)NC(=O)[C@H](CC(C)C)NC(=O)[C@H](Cc1ccc(O)cc1)NC(=O)[C@H](CCCCN)NC(=O)[C@H](CO)NC(=O)[C@H](Cc1ccc(O)cc1)NC(=O)[C@H](CC(=O)O)NC(=O)[C@H](CO)NC(=O)[C@@H](NC(=O)[C@H](Cc1ccccc1)NC(=O)[C@@H](NC(=O)CNC(=O)[C@H](Cc1c[nH]cn1)NC(=O)[C@H](CO)NC(=O)CCc1c[nH]cn1)[C@@H](C)O)[C@@H](C)O)C(=O)N[C@@H](CCC(=O)O)C(=O)N[C@@H](Cc1ccccc1)C(=O)N[C@H](C(=O)N[C@@H](CCC(N)=O)C(=O)N[C@@H](Cc1c[nH]c2ccccc12)C(=O)N[C@@H](CC(C)C)C(=O)N[C@@H](CC(C)C)C(=O)N[C@@H](CO)C(=O)N[C@H](C(=O)O)[C@@H](C)O)C(C)C)C(=O)O)C(=O)O)C(=O)O)C(=O)O [Example 12, N^ϵ20-[(4S)-4-[[(4S)-4-[[(4S)-4-[[(4S)-4-acetamido-4-carboxybutanoyl]amino]-4-carboxybutanoyl]amino]-4-carboxybutanoyl]amino]-4-carboxybutanoyl]-[Imp1, His3, Glu15, Lys20, Glu21, Leu27, Ser28]-Glucagon] (Desaminohistidyl-SHGTFTSDYSKYLESRRAK([γGlu-γGlu-γGlu-γGlu-Ac])EFVQWLLST-OH) | 88
2 | CC(=O)N[C@@H](CCC(=O)N[C@@H](CCC(=O)N[C@@H](CCC(=O)N[C@@H](CCC(=O)NCCCC[C@H](NC(=O)[C@H](CCC(=O)O)NC(=O)[C@H](CC(C)C)NC(=O)[C@H](Cc1ccc(O)cc1)NC(=O)[C@H](CCCCN)NC(=O)[C@H](CO)NC(=O)[C@H](Cc1ccc(O)cc1)NC(=O)[C@H](CC(=O)O)NC(=O)[C@H](CO)NC(=O)[C@@H](NC(=O)[C@H](Cc1ccccc1)NC(=O)[C@@H](NC(=O)CNC(=O)[C@H](Cc1c[nH]cn1)NC(=O)[C@H](CO)NC(=O)CCc1c[nH]cn1)[C@@H](C)O)[C@@H](C)O)C(=O)N[C@@H](CCCNC(=N)N)C(=O)N[C@@H](CCCNC(=N)N)C(=O)N[C@@H](C)C(=O)N[C@@H](CCC(N)=O)C(=O)N[C@@H](CCC(=O)O)C(=O)N[C@@H](Cc1ccccc1)C(=O)N[C@H](C(=O)N[C@@H](CCC(N)=O)C(=O)N[C@@H](Cc1c[nH]c2ccccc12)C(=O)N[C@@H](CC(C)C)C(=O)N[C@@H](CC(C)C)C(=O)N[C@@H](CO)C(=O)N[C@H](C(=O)O)[C@@H](C)O)C(C)C)C(=O)O)C(=O)O)C(=O)O)C(=O)O [Example 11, N^ϵ16-[(4S)-4-[[(4S)-4-[[(4S)-4-[[(4S)-4-acetamido-4-carboxybutanoyl]amino]-4-carboxybutanoyl]amino]-4-carboxybutanoyl]amino]-4-carboxybutanoyl]-[Imp1, His3, Glu15, Lys16, Glu21, Leu27, Ser28]-Glucagon] (Desaminohistidyl-SHGTFTSDYSKYLEK([γGlu-γGlu-γGlu-γGlu-Ac])RRAQEFVQWLLST-OH) | 98

The next lines start with the values.

Row | recovery at 250 μM [%] | SMILES
3 | 100 | CC(=O)N[C@@H](CCC(=O)N[C@@H](CCC(=O)N[C@@H](CCC(=O)N[C@@H](CCC(=O)NCC(=O)NCCCC[C@H](NC(=O)[C@@H](NC(=O)[C@H](Cc1ccccc1)NC(=O)[C@H](CCC(=O)O)NC(=O)[C@H](CCC(N)=O)NC(=O)[C@H](C)NC(=O)[C@H](CCCNC(=N)N)NC(=O)[C@H](CCCNC(=N)N)NC(=O)[C@H](CO)NC(=O)[C@H](CCC(=O)O)NC(=O)[C@H](CC(C)C)NC(=O)[C@H](Cc1ccc(O)cc1)NC(=O)[C@H](CCCCN)NC(=O)[C@H](CO)NC(=O)[C@H](Cc1ccc(O)cc1)NC(=O)[C@H](CC(=O)O)NC(=O)[C@H](CO)NC(=O)[C@@H](NC(=O)[C@H](Cc1ccccc1)NC(=O)[C@@H](NC(=O)CNC(=O)[C@H](Cc1c[nH]cn1)NC(=O)[C@H](CO)NC(=O)CCc1c[nH]cn1)[C@@H](C)O)[C@@H](C)O)C(C)C)C(=O)N[C@@H](Cc1c[nH]c2ccccc12)C(=O)N[C@@H](CC(C)C)C(=O)N[C@@H](CC(C)C)C(=O)N[C@@H](CO)C(=O)N[C@H](C(=O)O)[C@@H](C)O)C(=O)O)C(=O)O)C(=O)O)C(=O)O [Example 17, N^ϵ24-[2-[[(4S)-4-[[(4S)-4-[[(4S)-4-[[(4S)-4-acetamido-4-carboxybutanoyl]amino]-4-carboxybutanoyl]amino]-4-carboxybutanoyl]amino]-4-carboxybutanoyl]amino]acetyl]-[Imp1, His3, Glu15, Glu21, Lys24, Leu27, Ser28]-Glucagon] (Desaminohistidyl-SHGTFTSDYSKYLESRRAQEFVK([Gly-γGlu-γGlu-γGlu-γGlu-Ac])WLLST-OH)
4 | 100 | CC(=O)N[C@@H](CCC(=O)N[C@@H](CCC(=O)N[C@@H](CCC(=O)N[C@@H](CCC(=O)NCCCC[C@H](NC(=O)[C@@H](NC(=O)[C@H](Cc1ccccc1)NC(=O)[C@H](CC(=O)O)NC(=O)[C@H](CCC(N)=O)NC(=O)[C@H](C)NC(=O)[C@H](CCCNC(=N)N)NC(=O)[C@H](CCCNC(=N)N)NC(=O)[C@H](CO)NC(=O)[C@H](CCC(=O)O)NC(=O)[C@H](CC(C)C)NC(=O)[C@H](Cc1ccc(O)cc1)NC(=O)[C@H](CCCCN)NC(=O)[C@H](CO)NC(=O)[C@H](Cc1ccc(O)cc1)NC(=O)[C@H](CC(=O)O)NC(=O)[C@H](CO)NC(=O)[C@@H](NC(=O)[C@H](Cc1ccccc1)NC(=O)[C@@H](NC(=O)CNC(=O)[C@H](Cc1c[nH]cn1)NC(=O)[C@H](CO)NC(=O)CCc1c[nH]cn1)[C@@H](C)O)[C@@H](C)O)C(C)C)C(=O)N[C@@H](Cc1c[nH]c2ccccc12)C(=O)N[C@@H](CC(C)C)C(=O)N[C@@H](CC(C)C)C(=O)N[C@@H](CO)C(=O)N[C@H](C(=O)O)[C@@H](C)O)C(=O)O)C(=O)O)C(=O)O)C(=O)O [Example 5, N^ϵ24-[(4S)-4-[[(4S)-4-[[(4S)-4-[[(4S)-4-acetamido-4-carboxybutanoyl]amino]-4-carboxybutanoyl]amino]-4-carboxybutanoyl]amino]-4-carboxybutanoyl]-[Imp1, His3, Glu15, Lys24, Leu27, Ser28]-Glucagon] (Desaminohistidyl-SHGTFTSDYSKYLESRRAQDFVK([γGlu-γGlu-γGlu-γGlu-Ac])WLLST-OH)
5 | 100 | CC(=O)N[C@@H](CCC(=O)N[C@@H](CCC(=O)N[C@@H](CCC(=O)N[C@@H](CCC(=O)NCCCC[C@H](NC(=O)[C@@H](NC(=O)[C@H](Cc1ccccc1)NC(=O)[C@H](CC(=O)O)NC(=O)[C@H](CCC(N)=O)NC(=O)[C@H](C)NC(=O)[C@H](CCCNC(=N)N)NC(=O)[C@H](CCCNC(=N)N)NC(=O)[C@H](CO)NC(=O)[C@H](CCC(=O)O)NC(=O)[C@H](CC(C)C)NC(=O)[C@H](Cc1ccc(O)cc1)NC(=O)[C@H](CCCCN)NC(=O)[C@H](CO)NC(=O)[C@H](CC(C)C)NC(=O)[C@H](CC(=O)O)NC(=O)[C@H](CO)NC(=O)[C@@H](NC(=O)[C@H](Cc1ccccc1)NC(=O)[C@@H](NC(=O)CNC(=O)[C@H](Cc1c[nH]cn1)NC(=O)C(C)(C)NC(=O)CCc1c[nH]cn1)[C@@H](C)O)[C@@H](C)O)C(C)C)C(=O)N[C@@H](Cc1c[nH]c2ccccc12)C(=O)N[C@@H](CC(C)C)C(=O)N[C@@H](CC(C)C)C(=O)N[C@@H](CO)C(=O)N[C@H](C(=O)O)[C@@H](C)O)C(=O)O)C(=O)O)C(=O)O)C(=O)O [Example 3, N^ϵ24-[(4S)-4-[[(4S)-4-[[(4S)-4-[[(4S)-4-acetamido-4-carboxybutanoyl]amino]-4-carboxybutanoyl]amino]-4-carboxybutanoyl]amino]-4-carboxybutanoyl]-[Imp1, Aib2, His3, Leu10, Glu15, Lys24, Leu27, Ser28]-Glucagon] (Desaminohistidyl-[Aib]HGTFTSDLSKYLESRRAQDFVK([γGlu-γGlu-γGlu-γGlu-Ac])WLLST-OH)
